Data published in patent US20240286998A1, “F[…], ANALOGUES THEREOF, AND METHODS USING SAME” (Saint Joseph's University, priority 2021, published 2024).
Like-named read-outs stand apart in the source and are kept apart here.

Experiments:
5-HT2B = 5-HT2B (Homo sapiens (Human), UniProt P41595); assay: 5-HT2B Gq-mediated calcium flux functional assay; assay type: cell-based
5-HT2C = 5-HT2C (Homo sapiens (Human), UniProt P28335); assay: 5-HT2C Gq-mediated calcium flux functional assay; assay type: cell-based
Chain of 5-HT2C (P28335 whole entry, looked up): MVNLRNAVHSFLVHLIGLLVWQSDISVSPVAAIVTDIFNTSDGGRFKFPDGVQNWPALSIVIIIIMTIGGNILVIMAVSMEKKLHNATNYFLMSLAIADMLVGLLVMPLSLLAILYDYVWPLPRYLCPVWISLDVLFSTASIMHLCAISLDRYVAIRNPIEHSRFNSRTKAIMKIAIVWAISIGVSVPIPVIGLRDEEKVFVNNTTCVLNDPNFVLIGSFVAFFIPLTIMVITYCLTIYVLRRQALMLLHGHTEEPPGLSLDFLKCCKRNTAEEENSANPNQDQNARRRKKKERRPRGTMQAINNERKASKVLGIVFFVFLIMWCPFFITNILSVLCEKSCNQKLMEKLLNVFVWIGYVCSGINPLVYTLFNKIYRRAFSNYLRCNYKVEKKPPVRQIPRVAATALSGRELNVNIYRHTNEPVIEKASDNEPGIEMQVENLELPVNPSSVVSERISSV

Serotonin 5-HT2A (human) = Serotonin 5-HT2A (human) (Homo sapiens (Human), UniProt P28223); assay: 5-HT2A receptor binding, [3H]-ketanserin competition in membrane fractions; details: for 5-HT2A pKi ± SEM: 1 nM [3H]-ketanserin, Cheng-Prusoff, N=1-3
5-HT1A = 5-HT1A (Homo sapiens (Human), UniProt P08908); assay: 5-HT1A Gi/o-mediated cAMP inhibition, GloSensor assay; assay type: cell-based; details: for 5-HT1A-cAMP Emax (% 5-HT): cAMP inhibition, 0.2 μM isoproterenol, IA = Inactive
5-HT2A = 5-HT2A (Homo sapiens (Human), UniProt P28223); assay: 5-HT2A Gq-mediated calcium flux functional assay; assay type: cell-based
[1] = IA = Inactive, N=1-3, read-out: 5-HT2B-Ca2+ FLUX pEC50 (converted)
[2] = IA = Inactive, N=1-3, read-out: 5-HT2A-Ca2+ FLUX pEC50 (converted)

Chain of 5-HT2B (P41595 whole entry): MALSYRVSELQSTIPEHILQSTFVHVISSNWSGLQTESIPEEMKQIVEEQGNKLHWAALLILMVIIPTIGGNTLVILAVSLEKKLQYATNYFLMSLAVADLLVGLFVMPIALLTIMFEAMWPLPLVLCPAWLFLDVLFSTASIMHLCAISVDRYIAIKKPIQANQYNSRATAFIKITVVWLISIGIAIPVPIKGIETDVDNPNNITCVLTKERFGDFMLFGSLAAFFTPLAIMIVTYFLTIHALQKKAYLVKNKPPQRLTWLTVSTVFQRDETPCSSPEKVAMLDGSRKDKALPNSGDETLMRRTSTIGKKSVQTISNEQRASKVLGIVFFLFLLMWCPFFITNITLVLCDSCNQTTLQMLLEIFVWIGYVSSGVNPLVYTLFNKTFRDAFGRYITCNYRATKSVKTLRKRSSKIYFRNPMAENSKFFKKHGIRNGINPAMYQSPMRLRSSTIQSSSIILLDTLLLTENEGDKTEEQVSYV

SMILES | EC50 (5-HT2B) [nM] | 5-HT2B-Ca2+ FLUX Emax (% 5-HT) (5-HT2B; IA = Inactive, N=1-3) | EC50 (5-HT2C) [nM] | 5-HT2C-Ca2+ FLUX Emax (% 5-HT) (5-HT2C; IA = Inactive, N=1-3) | Ki (Serotonin 5-HT2A (human)) [nM] | EC50 (5-HT1A) [nM] | 5-HT1A-cAMP Emax (% 5-HT) (5-HT1A) | EC50 (5-HT2A) [nM] | 5-HT2A-Ca2+ FLUX Emax (% 5-HT) (5-HT2A; IA = Inactive, N=1-3) | EC50 (5-HT2B; [1]) [nM] | 5-HT2A pKi ± SEM (Serotonin 5-HT2A (human)) | EC50 (5-HT2A; [2]) [nM] | EC50 (5-HT2C; IA = Inactive, N=1-3, read-out: 5-HT2C-Ca2+ FLUX pEC50 (converted)) [nM]
C=CCN(C)CCc1c[nH]c2ccc(F)cc12 [Example 10, N-(2-(5-fluoro-1H-indol-3-yl)ethyl)-N-methylprop-2-en-1-amine] | 0.955 | 73.8 ± 2.3 | 3.02 | 97.4 ± 2.6 | 309 | 89.1 | 97.8 ± 2.7 | 0.479 | 100.3 ± 2.2 |  |  |  | 
CCCN(CC#N)CCc1c[nH]c2c(F)cccc12 [compound 181, 2-((2-(7-fluoro-1H-indol-3-yl)ethyl)(propyl)amino)acetonitrile] |  | 36.8 ± 0.7 |  |  |  |  |  |  | 68.7 ± 1.7 | 295 | 5.75 | 58.9 | 
CCN(C)CCc1c[nH]c2ccc(F)cc12 [Example 12, N-ethyl-2-(5-fluoro-1H-indol-3-yl)-N-methylethan-1-amine] | 2.29 | 65.8 ± 1.6 | 1.58 | 117.2 ± 2.5 |  | 75.9 | 91.1 ± 1.7 | 1.74 | 101.8 ± 1.1 |  | 6.66 ± 0.12 |  | 
CN(CCc1c[nH]c2ccc(F)cc12)C1CSC1 [compound 20, N-(2-(5-fluoro-1H-indol-3-yl)ethyl)-N-methylthietan-3-amine] |  | 17.3 ± 1.1 |  | 55.0 ± 2.8 |  | 794 | 93.1 ± 2.5 |  | 61.8 ± 3.2 | 2.4 |  | 28.8 | 468
C#CCN(CCC)CCc1c[nH]c2c(F)cccc12 [compound 180, N-(2-(7-fluoro-1H-indol-3-yl)ethyl)-N-propylprop-2-yn-1-amine] | 38 | 92.7 ± 1.2 | 631 | 56.5 ± 2.1 |  |  |  | 79.4 | 80.7 ± 1.6 |  | 5.75 |  | 
C=CCN(CCc1c[nH]c2ccc(F)cc12)C(C)C [Example 11, N-(2-(5-fluoro-1H-indol-3-yl)ethyl)-N-isopropylprop-2-en-1-amine] | 0.794 | 98.8 ± 1.6 | 20.4 | 101.5 ± 2.8 |  | 151 | 95.5 ± 1.7 | 0.617 | 105.4 ± 2.1 |  |  |  | 
CC(C)N(CCc1c[nH]c2ccc(F)cc12)C1CCC1 [compound 40, N-(2-(5-fluoro-1H-indol-3-yl)ethyl)-N-isopropylcyclobutanamine] | 1.1 | 106.7 ± 1.5 | 112 | 94.9 ± 2.0 |  | 66.1 | 102.1 ± 1.7 | 0.891 | 102.5 ± 2.0 |  | 6.06 ± 0.05 |  | 
Fc1ccc2[nH]cc(CCN(C3CCC3)C3CC3)c2c1 [compound 173, N-cyclopropyl-N-(2-(5-fluoro-1H-indol-3-yl)ethyl)cyclobutanamine] | 17.8 | 82.8 ± 0.8 | 302 | 80.4 ± 1.2 |  |  |  | 7.24 | 87.4 ± 0.7 |  | 6.58 |  | 
